What all share (assay): thermal shift assay, SYPRO Orange
Type in all cases: binding

One assay concerns the target T1, BfPNK/CPDase (Branchiostoma floridae, UniProt A0A9J7HK91).
T1 construct: gene LOC118405679; full length; N-terminal His6-3C tag cleaved; from E. coli Rosetta(DE3); monomer under reducing conditions
The note with it: 1000 µM; 50 mM HEPES pH 7.5, 150 mM NaCl, 1 mM ligand; ligand-free reference in the 1st table, row 9. An excerpt: thermal shift assay, SYPRO Orange on BfPNK/CPDase

For the next assay, the target named is T2, ScTrl1 PNK/CPDase (Saccharomyces cerevisiae, UniProt P09880).
T2 construct: gene TRL1; PNK + CPDase domains of Trl1 (C-terminal part, ligase domain absent); N-terminal His6-3C tag cleaved; E. coli Rosetta(DE3); monomer
T2 sequence (P09880 389-827 limits assumed): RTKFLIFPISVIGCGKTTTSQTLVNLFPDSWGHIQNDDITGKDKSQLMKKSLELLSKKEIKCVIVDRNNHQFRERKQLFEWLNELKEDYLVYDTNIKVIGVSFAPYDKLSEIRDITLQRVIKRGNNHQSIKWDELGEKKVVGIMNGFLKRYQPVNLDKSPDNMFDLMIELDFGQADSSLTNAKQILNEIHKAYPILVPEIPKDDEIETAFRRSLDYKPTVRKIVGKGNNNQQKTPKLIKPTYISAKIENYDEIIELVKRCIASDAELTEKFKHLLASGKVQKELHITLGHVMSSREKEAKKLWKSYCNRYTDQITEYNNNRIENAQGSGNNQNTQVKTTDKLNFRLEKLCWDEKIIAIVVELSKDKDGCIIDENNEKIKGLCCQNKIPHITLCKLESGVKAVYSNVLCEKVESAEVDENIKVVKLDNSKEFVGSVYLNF
The note with it: 1000 µM; 50 mM HEPES pH 7.5, 150 mM NaCl, 1 mM ligand; ligand-free reference in the 1st table, row 3. The source says: thermal shift assay, SYPRO Orange on ScTrl1 PNK/CPDase

The next assay addresses T3, ScTrl1 CPDase (Saccharomyces cerevisiae, UniProt P09880).
T3 construct: gene TRL1; not the N+ or N- variants; N-terminal His6-3C tag cleaved; E. coli Rosetta(DE3); monomer
T3 sequence (P09880 561-827 limits assumed): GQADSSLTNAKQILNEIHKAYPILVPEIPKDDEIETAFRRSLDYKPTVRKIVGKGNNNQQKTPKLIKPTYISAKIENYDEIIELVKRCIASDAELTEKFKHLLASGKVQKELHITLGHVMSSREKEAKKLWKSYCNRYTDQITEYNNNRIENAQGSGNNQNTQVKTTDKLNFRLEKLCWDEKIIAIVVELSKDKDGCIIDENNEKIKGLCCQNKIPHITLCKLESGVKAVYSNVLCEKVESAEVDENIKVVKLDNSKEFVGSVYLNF
The conditions noted are these: 1000 µM; 50 mM HEPES pH 7.5, 150 mM NaCl, 1 mM ligand; ligand-free reference in the 1st table, row 6. An excerpt: thermal shift assay, SYPRO Orange on ScTrl1 CPDase

T1 sequence (A0A9J7HK91 entry or part of it): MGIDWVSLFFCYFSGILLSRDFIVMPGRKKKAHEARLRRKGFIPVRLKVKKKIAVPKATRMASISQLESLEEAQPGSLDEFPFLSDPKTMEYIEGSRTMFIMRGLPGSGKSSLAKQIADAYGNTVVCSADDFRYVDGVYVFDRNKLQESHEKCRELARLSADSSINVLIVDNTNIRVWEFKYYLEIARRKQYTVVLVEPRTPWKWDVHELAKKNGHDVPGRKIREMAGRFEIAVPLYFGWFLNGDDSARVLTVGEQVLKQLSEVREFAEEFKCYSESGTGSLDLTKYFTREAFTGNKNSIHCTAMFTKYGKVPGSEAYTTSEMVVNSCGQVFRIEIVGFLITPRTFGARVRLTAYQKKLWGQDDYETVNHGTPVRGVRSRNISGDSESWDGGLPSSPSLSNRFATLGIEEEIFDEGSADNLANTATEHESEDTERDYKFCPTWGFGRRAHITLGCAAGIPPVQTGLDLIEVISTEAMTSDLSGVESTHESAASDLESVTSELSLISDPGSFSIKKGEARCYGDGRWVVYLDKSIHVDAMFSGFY

As for `NC(=O)c1ccc[n+]([C@@H]2O[C@H](COP(=O)(O)OP(=O)(O)OC[C@H]3O[C@@H](n4cnc5c(N)ncnc54)[C@@H]4OP(=O)(O)O[C@@H]43)[C@@H](O)[C@H]2O)c1` [2′,3′-cNADP^+], the results for the “Tm (°C)” value on BfPNK/CPDase, at ScTrl1 PNK/CPDase and on ScTrl1 CPDase were 48 °C, 63 °C and 72 °C, respectively.

Source of the values: paper PMC5434554, “Structural similarities and functional differences clarify evolutionary relationships between tRNA healing enzymes and the myelin enzyme CNPase” (BMC Biochemistry, 2017).
